Reference: patent EP4563146A1 (IRBM S.P.A., priority 2023, dated 2025)
Where two headings read alike, the source gives them in different places.

Assays:
ZIKV replicon = experiment: ZIKV replication inhibition assay (NanoLuc replicon in Vero cells); conditions: Zika virus, Vero, 72 h
[1] = target: T1, West Nile Virus (WNV) NS2B-NS3 protease (West Nile virus, UniProt Q9Q6P4); experiment: WNV protease inhibition assay; type: biochemical; conditions: Table 4; letter codes for IC50
T1 construct: NS2B1423-1470); purchased R&D 2907-SE-020
T1 sequence (Q9Q6P4 1423-1470): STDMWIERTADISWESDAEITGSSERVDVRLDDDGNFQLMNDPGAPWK
T1 sequence (Q9Q6P4 1506-1689): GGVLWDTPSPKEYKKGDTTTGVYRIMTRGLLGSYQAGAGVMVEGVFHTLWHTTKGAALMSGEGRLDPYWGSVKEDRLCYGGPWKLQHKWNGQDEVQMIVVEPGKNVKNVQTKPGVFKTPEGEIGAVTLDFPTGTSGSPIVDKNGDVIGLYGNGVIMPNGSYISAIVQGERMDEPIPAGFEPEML
From the text: WNV protease inhibition assay

[2] = read-out: ZIKA Cell_Nanoluc, Vero cells with stable ZIKV replicon, 72 h, Nano-Glo readout

| SMILES | EC50 (ZIKV replicon; read-out: ZIKA Cell_Nanoluc) [nM] | IC50 [1] [nM] | EC50 (ZIKV replicon; [2]) [nM] |
| --- | --- | --- | --- |
| Cc1ccccc1CC(=O)Nc1cc(NC(=O)[N-]c2c[n+]([C@H]3CC[C@H](C(=O)N4CCCC4)CC3)no2)cc(C(F)(F)F)c1 [Example 254, (3-((1R,4R)-4-(Pyrrolidine-1-carbonyl)-cyclohexyl)-1,2,3-oxadiazol-3-ium-5-yl)((3-(2-(o-tolyl)acetamido)-5-(trifluoromethyl)phenyl)-carbamoyl)amide] | 1000 to 20000 | < 100 | – |
| CN1CCc2ccccc2C1C[n+]1cc([N-]C(=O)Nc2cc(NC(=O)Cc3ccccc3)cc(C(F)(F)F)c2)on1 (racemic) [Example 192, rac-(3-((2-Methyl-1,2,3,4-tetrahydroisoquinolin-1-yl)methyl)-1,2,3-oxadiazol-3-ium-5-yl)((3-(2-phenylacetamido)-5-(trifluoromethyl)phenyl)carbamoyl)amide] | – | 100 to 1000 | 100 to 1000 |
| CNC(=O)[C@H]1CCC[C@@H]([n+]2cc([N-]C(=O)Nc3cc(NC(=O)Cc4ccccc4C)cc(C(F)(F)F)c3)on2)C1 [Example 232, (3-((1R,3S)-3-(Methylcarbamoyl)cyclohexyl)-1,2,3-oxadiazol-3-ium-5-yl)((3-(2-(o-tolyl)acetamido)-5-(trifluoromethyl)phenyl)-carbamoyl)amide] | – | 100 to 1000 | 1000 to 20000 |
| Cc1ncnc(C)c1-c1ccc(C[n+]2cc([N-]C(=O)N[C@H]3CC[C@H](C(F)(F)F)C3)on2)cc1 [Example 233, (3-(4-(4,6-Dimethylpyrimidin-5-yl)benzyl)-1,2,3-oxadiazol-3-ium-5-yl)(((1S,3S)-3-(trifluoromethyl)cyclopentyl)carbamoyl)amide] | – | 100 to 1000 | 100 to 1000 |
| CN(C)[C@H]1CCC[C@@H]([n+]2cc([N-]C(=O)Nc3cc(NC(=O)Cc4ccccc4)cc(C(F)(F)F)c3)on2)C1 [Example 174, (3-((1R,3S)-3-(Dimethylamino)cyclohexyl)-1,2,3-oxadiazol-3-ium-5-yl)((3-(2-phenyl-acetamido)-5-(trifluoromethyl)phenyl)-carbamoyl)amide] | – | 100 to 1000 | 1000 to 20000 |
| CNC(=O)[C@@H]1CCC[C@@H]([n+]2cc([N-]C(=O)Nc3cc(NC(=O)Cc4ccccc4C)cc(C(F)(F)F)c3)on2)C1 [Example 231, (3-((1R,3R)-3-(Methylcarbamoyl)cyclohexyl)-1,2,3-oxadiazol-3-ium-5-yl)((3-(2-(o-tolyl)acetamido)-5-(trifluoromethyl)phenyl)-carbamoyl)amide] | – | < 100 | 1000 to 20000 |
| Cc1ccccc1CC(=O)Nc1cc(NC(=O)[N-]c2c[n+]([C@@H]3CCC[C@H](C(=O)N(C)C)C3)no2)cc(C(F)(F)F)c1 [Example 234, (3-((1R,3S)-3-(Dimethylcarbamoyl)cyclohexyl)-1,2,3-oxadiazol-3-ium-5-yl)((3-(2-(o-tolyl)-acetamido)-5-(trifluoromethyl)phenyl)-carbamoyl)amide] | – | 100 to 1000 | 1000 to 20000 |
| Cc1ccccc1CC(=O)Nc1cc(NC(=O)[N-]c2c[n+]([C@H]3CC[C@H](CO)CC3)no2)cc(C(F)(F)F)c1 [Example 228, (3-((1R,4R)-4-(Hydroxymethyl)cyclohexyl)-1,2,3-oxadiazol-3-ium-5-yl)((3-(2-(o-tolyl)acetamido)-5-(trifluoromethyl)phenyl)carbamoyl)amide] | 100 to 1000 | 100 to 1000 | – |
| Cc1nc(N)ncc1-c1ccc(C[n+]2cc([N-]C(=O)Nc3ccnc(C(F)(F)F)c3)on2)cc1 [Example 260, (3-(4-(2-Amino-4-methylpyrimidin-5-yl)benzyl)-1,2,3-oxadiazol-3-ium-5-yl)((2-(trifluoromethyl)pyridin-4-yl)carbamoyl)amide] | – | < 100 | < 100 |
| CN(C)C[C@H]1CC[C@H]([n+]2cc([N-]C(=O)Nc3cc(NC(=O)Cc4ccccc4C(F)(F)F)cc(C(F)(F)F)c3)on2)CC1 [Example 166, (3-((1R,4R)-4-((Dimethylamino)methyl)-cyclohexyl)-1,2,3-oxadiazol-3-ium-5-yl)((3-(trifluoromethyl)-5-(2-(2-(trifluoromethyl)-phenyl)acetamido)phenyl)carbamoyl)amide] | 1000 to 20000 | 100 to 1000 | – |
| Cc1ccccc1CC(=O)Nc1cc(NC(=O)[N-]c2c[n+](C3CCCC(CO)C3)no2)cc(C(F)(F)F)c1 (centres unmarked) [Example 265, (3-(3-(Hydroxymethyl)cyclohexyl)-1,2,3-oxadiazol-3-ium-5-yl)((3-(2-(o-tolyl)acetamido)-5-(trifluoromethyl)phenyl)carbamoyl)amide] | – | 100 to 1000 | 1000 to 20000 |
| COc1ccc(NC(=O)[N-]c2c[n+](Cc3ccc(-c4c(C)ncnc4C)cc3)no2)cc1C(F)(F)F [Example 249, (3-(4-(4,6-Dimethylpyrimidin-5-yl)benzyl)-1,2,3-oxadiazol-3-ium-5-yl)((4-methoxy-3-(trifluoromethyl)phenyl)carbamoyl)amide] | – | 100 to 1000 | < 100 |
| O=C([N-]c1c[n+](C[C@H]2CC[C@@H](c3cncnc3)CC2)no1)Nc1ccnc(C(F)(F)F)c1 [Example 182, (3-(((1S,4S)-4-(Pyrimidin-5-yl)cyclohexyl)methyl)-1,2,3-oxadiazol-3-ium-5-yl)((2-(trifluoromethyl)pyridin-4-yl)carbamoyl)amide] | 1000 to 20000 | 100 to 1000 | – |
| Cc1ccccc1CC(=O)Nc1cc(NC(=O)[N-]c2c[n+]([C@@H]3CCC[C@@H](O)C3)no2)cc(C(F)(F)F)c1 [Example 215, (3-((1R,3R)-3-Hydroxycyclohexyl)-1,2,3-oxadiazol-3-ium-5-yl)((3-(2-(o-tolyl)acetamido)-5-(trifluoromethyl)phenyl)carbamoyl)amide] | – | < 100 | < 100 |
| CN(C)[C@H]1CCC[C@@H]([n+]2cc([N-]C(=O)Nc3ccnc(C(F)(F)F)c3)on2)C1 [Example 204, (3-((1R,3S)-3-(Dimethylamino)cyclohexyl)-1,2,3-oxadiazol-3-ium-5-yl)((2-(trifluoromethyl)-pyridin-4-yl)carbamoyl)amide] | – | 100 to 1000 | 1000 to 20000 |
| CN(C)C[C@H]1CC[C@H]([n+]2cc([N-]C(=O)Nc3cc(NC(=O)Cc4cccc(CN)c4)cc(C(F)(F)F)c3)on2)CC1 [Example 163, ((3-(2-(3-(Aminomethyl)phenyl)acetamido)-5-(trifluoromethyl)phenyl)carbamoyl)(3-((1R,4R)-4-((dimethylamino)methyl)cyclohexyl)-1,2,3-oxadiazol-3-ium-5-yl)amide] | 1000 to 20000 | 100 to 1000 | – |
| Cc1ccnc(C)c1-c1ccc(C[n+]2cc([N-]C(=O)Nc3ccnc(C(F)(F)F)c3)on2)cc1 [Example 263, (3-(4-(2,4-Dimethylpyridin-3-yl)benzyl)-1,2,3-oxadiazol-3-ium-5-yl)((2-(trifluoromethyl)pyridin-4-yl)carbamoyl)amide] | – | < 100 | < 100 |
| Cc1ccccc1CC(=O)Nc1cc(NC(=O)[N-]c2c[n+]([C@H]3CC[C@H](N(C)C)CC3)no2)cc(C(F)(F)F)c1 [Example 257, (3-((1R,4R)-4-(Dimethylamino)cyclohexyl)-1,2,3-oxadiazol-3-ium-5-yl)((3-(2-(o-tolyl)-acetamido)-5-(trifluoromethyl)phenyl)-carbamoyl)amide] | 1000 to 20000 | < 100 | – |
| O=C([N-]c1c[n+](C[C@H]2CC[C@@H](c3cncnc3)CC2)no1)Nc1cccc(C(F)(F)F)c1 [Example 179, (3-(((1S,4S)-4-(Pyrimidin-5-yl)cyclohexyl)-methyl)-1,2,3-oxadiazol-3-ium-5-yl)((3-(trifluoromethyl)phenyl)carbamoyl)amide] | 1000 to 20000 | 1000 to 20000 | – |
| Cc1ccccc1CC(=O)Nc1cc(NC(=O)[N-]c2c[n+]([C@H]3CC[C@H](CN(C)C)CC3)no2)cc(C(F)(F)F)c1 [Example 171, (3-((1R,4R)-4-((Dimethylamino)methyl)-cyclohexyl)-1,2,3-oxadiazol-3-ium-5-yl)((3-(2-(o-tolyl)acetamido)-5-(trifluoromethyl)phenyl)-carbamoyl)amide] | 100 to 1000 | < 100 | – |
| CN(C)C[C@H]1CC[C@H]([n+]2cc([N-]C(=O)Nc3cc(N4CCC(c5ccccc5)C4=O)cc(C(F)(F)F)c3)on2)CC1 (stereo partly drawn) [Example 148, (3-((1R,4R)-4-((Dimethylamino)methyl)-cyclohexyl)-1,2,3-oxadiazol-3-ium-5-yl)((3-(2-oxo-3-phenylpyrrolidin-1-yl)-5-(trifluoromethyl)-phenyl)carbamoyl)amide] | 1000 to 20000 | 100 to 1000 | – |
| Cc1ncnc(C)c1-c1ccc(C[n+]2cc([N-]C(=O)Nc3cc(C(F)(F)F)c4ncccc4c3)on2)cc1 [Example 272, (3-(4-(4,6-Dimethylpyrimidin-5-yl)benzyl)-1,2,3-oxadiazol-3-ium-5-yl)((8-(trifluoromethyl)-quinolin-6-yl)carbamoyl)amide] | – | 1000 to 20000 | 100 to 1000 |
| Cc1nnccc1-c1ccc(C[n+]2cc([N-]C(=O)Nc3ccnc(C(F)(F)F)c3)on2)cc1 [Example 188, (3-(4-(3-Methylpyridazin-4-yl)benzyl)-1,2,3-oxadiazol-3-ium-5-yl)((2-(trifluoromethyl)-pyridin-4-yl)carbamoyl)amide] | – | < 100 | < 100 |
| Cc1nsc(C)c1-c1ccc(C[n+]2cc([N-]C(=O)Nc3ccnc(C(F)(F)F)c3)on2)cc1 [Example 211, (3-(4-(3,5-Dimethylisothiazol-4-yl)benzyl)-1,2,3-oxadiazol-3-ium-5-yl)((2-(trifluoromethyl)-pyridin-4-yl)carbamoyl)amide] | – | 100 to 1000 | 1000 to 20000 |
| Cc1ncnc(C)c1C1=CCC(C[n+]2cc([N-]C(=O)Nc3ccnc(C(F)(F)F)c3)on2)CC1 (centres unmarked) [Example 216, (3-((4-(4,6-Dimethylpyrimidin-5-yl)cyclohex-3-en-1-yl)methyl)-1,2,3-oxadiazol-3-ium-5-yl)((2-(trifluoromethyl)pyridin-4-yl)carbamoyl)amide] | – | 100 to 1000 | 1000 to 20000 |
